This passage reports Ki results from BindingDB's records for doi:10.1074/jbc.270.11.6056 (Medical Research Council Centre, 1995).

Structures can show the parent of a compound that is named as a salt.

The target of this assay is T1, 5-hydroxytryptamine receptor 3A (Mus musculus, UniProt P23979).
T1 sequence (P23979 whole entry): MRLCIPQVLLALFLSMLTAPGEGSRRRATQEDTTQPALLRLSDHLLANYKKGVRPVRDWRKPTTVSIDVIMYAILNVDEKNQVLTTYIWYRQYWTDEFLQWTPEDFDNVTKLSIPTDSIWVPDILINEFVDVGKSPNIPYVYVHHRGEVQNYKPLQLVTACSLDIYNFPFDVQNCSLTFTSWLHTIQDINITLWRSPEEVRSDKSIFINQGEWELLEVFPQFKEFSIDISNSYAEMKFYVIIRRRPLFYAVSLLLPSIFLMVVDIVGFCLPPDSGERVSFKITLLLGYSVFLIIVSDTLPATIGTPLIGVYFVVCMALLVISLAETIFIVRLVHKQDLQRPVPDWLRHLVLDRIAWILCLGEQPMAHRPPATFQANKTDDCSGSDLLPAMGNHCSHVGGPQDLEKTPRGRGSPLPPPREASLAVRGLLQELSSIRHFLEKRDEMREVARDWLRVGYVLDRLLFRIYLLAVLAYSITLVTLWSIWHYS
In general, Ki refers to a dissociation constant, usually derived from enzyme kinetics or from competition with a known ligand. Higher therefore signals weaker binding. Take `N=C(N)NC(=N)Nc1cccc(Cl)c1` [1-(3-CHLOROPHENYL)BIGUANIDE HYDROCHLORIDE]: the Ki was determined as 0.94 nM. This counts as sub-nanomolar.
To `Cc1nc[nH]c1CCC(=O)c1cc2ccccc2n1C` [CAS_124006] belongs 0.21 nM; to `CN1C2CCC1CC(OC(=O)c1cc(Cl)cc(Cl)c1)C2` (stereo not drawn) [MDL 72222], 13 nM.
